Measurements taken from patent US10889564B2, “Tetrahydroindazoles and medical uses thereof” (Genase Therapeutics B.V., priority 2015, dated 2021).

What was measured:
Format in all cases: cell-based
[1] = test system: p21 expression in ARN8 melanoma cells; assay: Levels of p53 and downstream targets (hdm2, pig3, p21) with nutlin-3; settings: 1 h then 2 μM nutlin-3 for 18 h, FIG. 4
Protocol: Levels of p53 and downstream targets hdm2, pig3 (band indicated by arrow) and p21 were determined. Levels of gapdh were used to monitor protein loading. Pig3 is a known pro-apoptotic protein.

ARN8 melanoma cells = assay: Sulforhodamine B assay of cancer cell growth and/or viability; settings: ARN8; 2 μM; 72 hours; absence of excess uridine
Protocol: ARN8 melanoma cells are seeded at a density of 500 cells per well of a 96 well plate. Following 24 hours of incubation, cells are treated with increasing concentrations of the compound of Example 8 in the absence or presence of excess uridine (100 micromolar). Cells are incubated for 72 hours after which the growth medium is removed from the cells and replaced by […] of 1× sterile PBS and 50 μL of 40% trichloroacetic acid in dH2O. Samples are incubated at 4° C. for 1 h to fix the cells. The plate is then washed with 3 changes of water with all liquid allowed to drain from the plate. […] of 0.1% sulforhodamine B in 1% acetic acid in H2O is added to each well and incubated for 30 minutes. Excess dye is washed out with three changes of 1% acetic acid in H2O with all liquid allowed to drain from the plate. The remaining dye is solubilized in 100 microliters of 10 mM un-buffered basic Tris per well and absorbance read at 570 nm.

K562 mtTP53, leukemia = assay: WST-1 assay; settings: 72 hours
Protocol: (§1) Adherent cell lines were cultured overnight prior to the addition of the compound of Example 1, whereas non-adherent cell lines were treated immediately after seeding. TP53 status in each cell line is indicated. All cells were grown in 10% FBS. p53 wild type or mutant status (wtTP53 or mtTP53) and tumor cell line origin are indicated. The results obtained are shown below and in FIG. 10.

RKO wtTP53, colon cancer = assay: WST-1 assay; settings: 72 hours
Protocol: as §1

Ramos mtTP53, lymphoma = assay: WST-1 assay; settings: 72 hours
Protocol: as §1

MV4-11 wtTP53, leukemia = assay: WST-1 assay; settings: 72 hours
Protocol: as §1

[2] = test system: HT29 mtTP53, colon cancer; assay: WST-1 assay; settings: 72 hours
Protocol: as §1

JVM2 wtTP53, lymphoma = assay: WST-1 assay; settings: 72 hours
Protocol: as §1

L428 mtTP53, lymphoma = assay: WST-1 assay; settings: 72 hours
Protocol: as §1

NB4 mtTP53, leukemia = assay: WST-1 assay; settings: 72 hours
Protocol: as §1

[3] = test system: HCT116 wtTP53, colon cancer; assay: WST-1 assay; settings: 72 hours
Protocol: as §1

A375 wtTP53, melanoma = assay: WST-1 assay; settings: 72 hours
Protocol: as §1

U2OS wtTP53, sarcoma = assay: WST-1 assay; settings: 72 hours
Protocol: as §1

A431 mtTP53, skin cancer = assay: WST-1 assay; settings: 72 hours
Protocol: as §1

[4] = test system: p53 synthesis in ARN8 melanoma cells; assay: p53 synthesis, 35S-Met pulse labelling and p53 immunoprecipitation; settings: 5 h treatment, 35S-Met 30 minutes, FIG. 3
Protocol: Incorporation of 35S-Met in the p53 immunoprecipitate was determined by autoradiography. This experiment was performed in duplicate (Exp. 1 and Exp. 2).

ARN8s wtTP53, melanoma = assay: WST-1 assay; settings: 72 hours
Protocol: TP53 status in each cell line is indicated. All cells were grown in 10% FBS. p53 wild type or mutant status (wtTP53 or mtTP53) and tumor cell line origin are indicated.

Structure (SMILES): O=C(NC1CCCc2c1cnn2-c1ccccc1F)c1ccccn1 (stereo not drawn) [Example 1, N-(1-(2-Fluorophenyl)-4,5,6,7-tetrahydro-1H-indazol-4-yl)picolinamide]
- nutlin-3 induced p21 expression [1]: Loss of nutlin-3 induced p21 expression
- viability at 2 µM (ARN8 melanoma cells): 53%
- metabolically active cells, percentage relative to the vehicle (DMSO) control (K562 mtTP53, leukemia; 1.23 μM): 63.91%
- metabolically active cells, percentage relative to the vehicle (DMSO) control (K562 mtTP53, leukemia; 3.70 μM): 57.69%
- metabolically active cells, percentage relative to the vehicle (DMSO) control (K562 mtTP53, leukemia; 11.11 μM): 55.28%
- metabolically active cells, percentage relative to the vehicle (DMSO) control (K562 mtTP53, leukemia; 33.30 μM): 53.35%
- metabolically active cells, percentage relative to the vehicle (DMSO) control (RKO wtTP53, colon cancer; 1.23 μM): 83.37%
- metabolically active cells, percentage relative to the vehicle (DMSO) control (RKO wtTP53, colon cancer; 3.70 μM): 42.62%
- metabolically active cells, percentage relative to the vehicle (DMSO) control (RKO wtTP53, colon cancer; 11.11 μM): 36.36%
- metabolically active cells, percentage relative to the vehicle (DMSO) control (RKO wtTP53, colon cancer; 33.30 μM): 29.16%
- metabolically active cells, percentage relative to the vehicle (DMSO) control (Ramos mtTP53, lymphoma; 1.23 μM): 87.94%
- metabolically active cells, percentage relative to the vehicle (DMSO) control (Ramos mtTP53, lymphoma; 3.70 μM): 54.16%
- metabolically active cells, percentage relative to the vehicle (DMSO) control (Ramos mtTP53, lymphoma; 11.11 μM): 42.35%
- metabolically active cells, percentage relative to the vehicle (DMSO) control (Ramos mtTP53, lymphoma; 33.30 μM): 40.94%
- metabolically active cells, percentage relative to the vehicle (DMSO) control (MV4-11 wtTP53, leukemia; 1.23 μM): 60.26%
- metabolically active cells, percentage relative to the vehicle (DMSO) control (MV4-11 wtTP53, leukemia; 3.70 μM): 36.85%
- metabolically active cells, percentage relative to the vehicle (DMSO) control (MV4-11 wtTP53, leukemia; 11.11 μM): 19.73%
- metabolically active cells, percentage relative to the vehicle (DMSO) control (MV4-11 wtTP53, leukemia; 33.30 μM): 15.79%
- metabolically active cells, percentage relative to the vehicle (DMSO) control ([2]; 1.23 μM): 70.23%
- metabolically active cells, percentage relative to the vehicle (DMSO) control ([2]; 3.70 μM): 23.19%
- metabolically active cells, percentage relative to the vehicle (DMSO) control ([2]; 11.11 μM): 25.66%
- metabolically active cells, percentage relative to the vehicle (DMSO) control ([2]; 33.30 μM): 12.11%
- metabolically active cells, percentage relative to the vehicle (DMSO) control (JVM2 wtTP53, lymphoma; 1.23 μM): 86.30%
- metabolically active cells, percentage relative to the vehicle (DMSO) control (JVM2 wtTP53, lymphoma; 3.70 μM): 75.36%
- metabolically active cells, percentage relative to the vehicle (DMSO) control (JVM2 wtTP53, lymphoma; 11.11 μM): 44.68%
- metabolically active cells, percentage relative to the vehicle (DMSO) control (JVM2 wtTP53, lymphoma; 33.30 μM): 38.31%
- metabolically active cells, percentage relative to the vehicle (DMSO) control (L428 mtTP53, lymphoma; 1.23 μM): 67.78%
- metabolically active cells, percentage relative to the vehicle (DMSO) control (L428 mtTP53, lymphoma; 3.70 μM): 33.84%
- metabolically active cells, percentage relative to the vehicle (DMSO) control (L428 mtTP53, lymphoma; 11.11 μM): 32.76%
- metabolically active cells, percentage relative to the vehicle (DMSO) control (L428 mtTP53, lymphoma; 33.30 μM): 34.80%
- metabolically active cells, percentage relative to the vehicle (DMSO) control (NB4 mtTP53, leukemia; 1.23 μM): 79.47%
- metabolically active cells, percentage relative to the vehicle (DMSO) control (NB4 mtTP53, leukemia; 3.70 μM): 65.73%
- metabolically active cells, percentage relative to the vehicle (DMSO) control (NB4 mtTP53, leukemia; 11.11 μM): 42.77%
- metabolically active cells, percentage relative to the vehicle (DMSO) control (NB4 mtTP53, leukemia; 33.30 μM): 36.19%
- metabolically active cells, percentage relative to the vehicle (DMSO) control ([3]; 1.23 μM): 75.69%
- metabolically active cells, percentage relative to the vehicle (DMSO) control ([3]; 3.70 μM): 50.13%
- metabolically active cells, percentage relative to the vehicle (DMSO) control ([3]; 11.11 μM): 28.40%
- metabolically active cells, percentage relative to the vehicle (DMSO) control ([3]; 33.30 μM): 14.51%
- metabolically active cells, percentage relative to the vehicle (DMSO) control (A375 wtTP53, melanoma; 1.23 μM): 85.95%
- metabolically active cells, percentage relative to the vehicle (DMSO) control (A375 wtTP53, melanoma; 3.70 μM): 50.62%
- metabolically active cells, percentage relative to the vehicle (DMSO) control (A375 wtTP53, melanoma; 11.11 μM): 45.86%
- metabolically active cells, percentage relative to the vehicle (DMSO) control (A375 wtTP53, melanoma; 33.30 μM): 32.67%
- metabolically active cells, percentage relative to the vehicle (DMSO) control (U2OS wtTP53, sarcoma; 1.23 μM): 98.88%
- metabolically active cells, percentage relative to the vehicle (DMSO) control (U2OS wtTP53, sarcoma; 3.70 μM): 70.03%
- metabolically active cells, percentage relative to the vehicle (DMSO) control (U2OS wtTP53, sarcoma; 11.11 μM): 51.63%
- metabolically active cells, percentage relative to the vehicle (DMSO) control (U2OS wtTP53, sarcoma; 33.30 μM): 50.16%
- metabolically active cells, percentage relative to the vehicle (DMSO) control (A431 mtTP53, skin cancer; 1.23 μM): 76.99%
- metabolically active cells, percentage relative to the vehicle (DMSO) control (A431 mtTP53, skin cancer; 3.70 μM): 52.31%
- metabolically active cells, percentage relative to the vehicle (DMSO) control (A431 mtTP53, skin cancer; 11.11 μM): 36.84%
- metabolically active cells, percentage relative to the vehicle (DMSO) control (A431 mtTP53, skin cancer; 33.30 μM): 27.93%
- p53 synthesis [4]: increases p53 synthesis
- metabolically active cells, percentage relative to the vehicle (DMSO) control (ARN8s wtTP53, melanoma; 1.23 μM): 68.69%
- metabolically active cells, percentage relative to the vehicle (DMSO) control (ARN8s wtTP53, melanoma; 3.70 μM): 40.86%
- metabolically active cells, percentage relative to the vehicle (DMSO) control (ARN8s wtTP53, melanoma; 11.11 μM): 35.13%
